Reference: ChEMBL document CHEMBL1201862, “PubChem BioAssay data set” (2004)
Activity calls are given as the source filed them.

Key:
[1] = biological target: Sphingosine 1-phosphate receptor 2 (Homo sapiens, UniProt O95136); assay: Dose Response Cell Based Assay for Agonists of the S1P2 Receptor of Purchased Analogues. [Related pubchem assays: 729, 843, 854, 736 ]; type: functional
[2] = biological target: Potassium voltage-gated channel subfamily KQT member 2 (Rattus norvegicus, UniProt O88943, W236L); assay: KCNQ2 channel potentiators, dose response, mechanism study for KCNQ2 potentiator project, cell-based, automated electrophysiology (AID 2603); type: functional
Potassium voltage-gated channel subfamily KQT member 2, sequence (O88943 whole entry W236L): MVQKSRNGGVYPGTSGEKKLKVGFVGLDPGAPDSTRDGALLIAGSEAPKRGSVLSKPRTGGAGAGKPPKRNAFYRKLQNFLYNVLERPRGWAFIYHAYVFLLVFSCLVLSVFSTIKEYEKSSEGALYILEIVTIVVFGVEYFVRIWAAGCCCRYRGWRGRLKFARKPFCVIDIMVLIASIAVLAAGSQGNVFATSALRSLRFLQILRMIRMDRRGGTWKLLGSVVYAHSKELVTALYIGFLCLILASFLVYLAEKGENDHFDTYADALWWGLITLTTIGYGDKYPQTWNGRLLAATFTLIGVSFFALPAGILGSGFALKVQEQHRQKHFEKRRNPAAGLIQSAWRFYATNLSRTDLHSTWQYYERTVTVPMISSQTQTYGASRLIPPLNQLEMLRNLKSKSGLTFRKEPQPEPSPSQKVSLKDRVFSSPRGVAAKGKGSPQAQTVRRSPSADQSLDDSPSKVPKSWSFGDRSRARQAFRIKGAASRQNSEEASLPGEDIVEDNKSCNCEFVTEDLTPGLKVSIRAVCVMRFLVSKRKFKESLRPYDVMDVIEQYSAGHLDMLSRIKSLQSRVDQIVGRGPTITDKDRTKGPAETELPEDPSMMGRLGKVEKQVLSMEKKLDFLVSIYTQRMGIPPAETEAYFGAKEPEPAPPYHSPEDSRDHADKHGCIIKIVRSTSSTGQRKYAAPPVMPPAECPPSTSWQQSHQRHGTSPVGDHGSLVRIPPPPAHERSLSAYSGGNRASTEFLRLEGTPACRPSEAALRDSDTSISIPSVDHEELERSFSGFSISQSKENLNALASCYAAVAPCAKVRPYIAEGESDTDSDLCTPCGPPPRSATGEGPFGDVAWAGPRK

Galanin receptor type 2 = Galanin receptor type 2 (Homo sapiens, UniProt O43603); assay: Dose Response cell-based high-throughput screening assay to identify antagonists of galanin receptor 2 (GALR2). [Related pubchem assays: 828, 866 ]; type: functional
INS1 = assay: beta cell apoptosis inhibitors, cytokine rescue, dose response, luminescence, retest (AID 449756); type: functional, cell-based; details: Rattus norvegicus;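 further: cell death triggered by IL-1 beta plus TNF-alpha plus IFN-gamma mixture; protective hits raise ATP signal compared with cytokine alone wells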
[3] = Luminescence Cell-Based Dose Response to Identify Activators of Luciferase Translation or Activity in H4-C Neuroglioblastoma Cells. [Related pubchem assays: 1829 (Project Summary), 1814 (Primary HTS)]; type: functional
H4 = assay: Luminescence Cell-Based Dose Response HTS to Identify Activators of 5'UTR Stem-Loop Driven Prion Protein mRNA Translation in H4 Neuroglioblastoma Cells. [Related pubchem assays: 1829 (Project Summary), 1814 (Primary HTS)]; type: functional; details: Homo sapiens
[4] = Luminescence Cell-Based Dose Confirmation to Identify Activators of 5'UTR Stem-Loop Driven Alpha-Synuclein mRNA Translation in H4 Neuroglioblastoma Cells. [Related pubchem assays: 1829 (Project Summary), 1814 (Primary HTS)]; type: functional
[5] = Luminescence Cell-Based Dose Confirmation HTS to Identify Activators of 5'UTR Stem-Loop Driven Alpha-Synuclein mRNA Translation in H4 Neuroglioblastoma Cells. [Related pubchem assays: 1829 (Project Summary), 1814 (Primary HTS)]; type: functional
[6] = Luminescence Cell-Based Dose Response HTS to Identify Activators of Luciferase Translation or Activity in H4 […] Cells. [Related pubchem assays: 1829 (Project Summary), 1814 (Primary HTS)]; type: functional
[7] = Luminescence Cell-Based Dose Response to Identify Activators of 5'UTR Stem-Loop Driven Prion Protein mRNA Translation in H4-C Neuroglioblastoma Cells. [Related pubchem assays: 1829 (Project Summary), 1814 (Primary HTS)]; type: functional
[8] = inhibitors of SNCA 5'UTR-driven reporter translation, confirmation, H4 neuroglioma cells, luminescence (AID 1988); type: functional, cell-based
[9] = Luminescence Cell-Based Dose Response HTS to Identify Inhibitors of 5'UTR Stem-Loop Driven Prion Protein mRNA Translation in H4 Neuroglioblastoma Cells. [Related pubchem assays: 1827 (Project Summary), 1813 (Primary HTS)]; type: functional
[10] = Luminescence-based counterscreen assay for KLF5 inhibitors: dose response cell-based high throughput screening assay to identify cytotoxic compounds using the IEC-6 intestinal epithelial cell line. [Related pubchem assays: 1700 (Primary screen.), 1834 (Confirmation screen.), 1858 (Summary AID.), 1905 (Counterscreen.)]; type: functional
[11] = inhibitors of intracellular T. cruzi replication, confirmation, NIH3T3 host cells, beta-gal luminescence (AID 2044); type: functional, cell-based;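 further: intracellular parasites grown in NIH/3T3 mouse fibroblasts as host cells; luminescent beta-galactosidase reporter signal from transgenic T. cruzi replicating inside host cells; inhibitors lower the luminescence signal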
[12] = inhibitors of firefly luciferase expression or activity, dose response, H4 neuroglioma cells, luminescence (AID 1990); type: functional, cell-based
[13] = cytotoxicity toward NIH3T3 fibroblasts, dose response, counter-screen, cell-based, ATP luminescence, mouse fibroblasts (AID 2010); type: functional;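 further: cells exposed to compound for about 90 hours before reading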
[14] = C. albicans growth with fluconazole, confirmation, fluorescence, retest (AID 2467); type: functional, cell-based
[15] = NIH-3T3 fibroblast cytotoxicity, dose response, cytotoxicity control, cell-based, fluorescence, Alamar Blue, secondary assay (AID 2327); type: functional;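 further: NIH-3T3 mouse fibroblasts cultured with fluconazole at 8 µg/mL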
Nonstructural protein 1 = Nonstructural protein 1 (Influenza A virus, UniProt Q194T2); type: functional, Influenza A virus (A/California/07/2009(H1N1))
Nonstructural protein 1, sequence (Q194T2 whole entry): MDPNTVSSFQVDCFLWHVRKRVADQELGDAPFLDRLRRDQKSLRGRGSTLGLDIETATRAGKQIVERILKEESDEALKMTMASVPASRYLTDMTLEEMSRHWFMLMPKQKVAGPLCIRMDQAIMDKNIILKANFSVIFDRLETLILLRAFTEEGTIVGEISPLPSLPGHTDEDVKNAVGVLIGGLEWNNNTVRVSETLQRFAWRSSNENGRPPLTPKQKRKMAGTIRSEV

Caspase-6 = biological target: T1, Caspase-6 (Homo sapiens, UniProt P55212); assay: human caspase-6 inhibitors, dose response, biochemical, VEID-R110 fluorescence, cherry-pick (AID 720632)
T1 sequence (P55212 whole entry): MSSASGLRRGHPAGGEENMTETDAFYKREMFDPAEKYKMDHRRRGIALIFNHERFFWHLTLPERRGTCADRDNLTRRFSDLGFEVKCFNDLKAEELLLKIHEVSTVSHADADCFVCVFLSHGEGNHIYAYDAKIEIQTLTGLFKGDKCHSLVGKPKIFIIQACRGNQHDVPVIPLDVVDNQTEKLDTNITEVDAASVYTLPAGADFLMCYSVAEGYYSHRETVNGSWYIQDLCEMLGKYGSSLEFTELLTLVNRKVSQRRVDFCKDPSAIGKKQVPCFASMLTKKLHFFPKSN

Mucolipin-3 = Mucolipin-3 (Homo sapiens, UniProt Q8TDD5); assay: Dose response cell-based high-throughput screening assay for agonists of the transient receptor potential channel ML3 (TRPML3). [Related pubchem assays: 1526, 1424, 1448 ]; type: functional
Mucolipin-3, sequence (Q8TDD5 whole entry): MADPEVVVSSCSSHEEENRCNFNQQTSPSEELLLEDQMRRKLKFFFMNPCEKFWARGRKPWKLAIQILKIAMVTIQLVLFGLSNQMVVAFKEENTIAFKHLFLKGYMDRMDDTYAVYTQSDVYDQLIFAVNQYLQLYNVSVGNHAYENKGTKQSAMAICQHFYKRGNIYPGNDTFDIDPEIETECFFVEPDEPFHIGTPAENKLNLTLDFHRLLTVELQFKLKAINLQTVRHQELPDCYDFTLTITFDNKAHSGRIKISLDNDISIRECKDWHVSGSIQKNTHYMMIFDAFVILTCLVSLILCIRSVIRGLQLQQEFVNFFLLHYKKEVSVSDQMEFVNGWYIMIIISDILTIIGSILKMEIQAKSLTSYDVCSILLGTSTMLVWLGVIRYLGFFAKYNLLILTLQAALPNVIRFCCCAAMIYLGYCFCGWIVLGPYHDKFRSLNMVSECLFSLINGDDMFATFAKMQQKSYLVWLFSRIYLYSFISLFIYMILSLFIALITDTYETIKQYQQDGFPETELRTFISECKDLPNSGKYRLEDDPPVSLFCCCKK

Ion channel NompC = Ion channel NompC (Danio rerio, UniProt Q7T1G6); assay: Fluorescence counterscreen assay for TRPML3 agonists: dose response cell-based high-throughput screening assay to identify agonists of the transient receptor potential channel N1 (TRPN1). [Related pubchem assays: 1526, 1424, 1448 ]; type: functional
[16] = inhibitors of Bluetongue virus cytopathic effect, confirmation, arbovirus, BSR cells (AID 1250); type: functional;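 further: protection from viral cytopathic effect measured as cell viability by ATP luminescence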
[17] = M. tuberculosis H37Rv growth inhibitors, H37Rv strain (AID 1626); type: functional
[18] = biological target: T2, Rac GTPase-activating protein 1 (Homo sapiens, UniProt Q9H0H5); assay: MgcRacGAP GTPase-activating activity inhibitors, confirmation, biochemical, ADP Hunter fluorescence, primary and confirmatory (AID 624330); type: functional
T2 sequence (Q9H0H5 whole entry): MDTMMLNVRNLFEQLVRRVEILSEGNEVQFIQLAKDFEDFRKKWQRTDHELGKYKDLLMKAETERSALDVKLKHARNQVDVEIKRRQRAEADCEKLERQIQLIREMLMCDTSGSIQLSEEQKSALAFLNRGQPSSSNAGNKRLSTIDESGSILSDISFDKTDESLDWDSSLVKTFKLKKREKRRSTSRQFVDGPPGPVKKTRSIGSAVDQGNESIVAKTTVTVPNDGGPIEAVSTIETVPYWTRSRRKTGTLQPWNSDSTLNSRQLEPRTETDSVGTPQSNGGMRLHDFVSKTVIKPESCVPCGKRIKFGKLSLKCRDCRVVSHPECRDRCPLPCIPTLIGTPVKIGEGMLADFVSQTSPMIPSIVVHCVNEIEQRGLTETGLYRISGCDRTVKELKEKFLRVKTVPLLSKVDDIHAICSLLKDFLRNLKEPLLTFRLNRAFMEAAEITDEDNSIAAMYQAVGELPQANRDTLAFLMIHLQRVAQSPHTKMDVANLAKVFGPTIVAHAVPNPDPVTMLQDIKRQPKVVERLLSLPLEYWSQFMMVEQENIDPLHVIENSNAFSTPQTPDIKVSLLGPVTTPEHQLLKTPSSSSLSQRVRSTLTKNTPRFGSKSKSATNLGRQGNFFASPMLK

[19] = biological target: T3, Kappa-type opioid receptor (Homo sapiens, UniProt P41145); type: functional
T3 sequence (P41145 whole entry): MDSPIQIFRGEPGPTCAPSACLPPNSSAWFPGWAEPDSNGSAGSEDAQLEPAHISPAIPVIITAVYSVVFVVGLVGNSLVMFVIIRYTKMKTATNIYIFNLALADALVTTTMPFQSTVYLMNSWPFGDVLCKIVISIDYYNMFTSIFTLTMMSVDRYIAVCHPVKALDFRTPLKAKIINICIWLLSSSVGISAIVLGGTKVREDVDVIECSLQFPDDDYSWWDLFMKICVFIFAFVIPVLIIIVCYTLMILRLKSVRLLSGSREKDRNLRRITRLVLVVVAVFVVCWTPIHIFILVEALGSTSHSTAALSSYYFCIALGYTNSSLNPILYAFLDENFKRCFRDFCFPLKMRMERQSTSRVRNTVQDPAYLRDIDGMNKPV

[20] = biological target: Matrix metalloproteinase-14 (Homo sapiens, UniProt P50281); assay: Dose Response confirmation of uHTS hits for a small molecule inhibitors of MT1-MMP activation in a fluorescence assay set 1.; type: functional
[21] = HeLa cell cytotoxicity, dose response, cytotoxicity control for MgcRacGAP inhibitor project (AID 624300); type: functional
Beta-galactosidase = Beta-galactosidase (Escherichia coli, UniProt Q8VNN2); type: functional
Beta-galactosidase, sequence (Q8VNN2 whole entry): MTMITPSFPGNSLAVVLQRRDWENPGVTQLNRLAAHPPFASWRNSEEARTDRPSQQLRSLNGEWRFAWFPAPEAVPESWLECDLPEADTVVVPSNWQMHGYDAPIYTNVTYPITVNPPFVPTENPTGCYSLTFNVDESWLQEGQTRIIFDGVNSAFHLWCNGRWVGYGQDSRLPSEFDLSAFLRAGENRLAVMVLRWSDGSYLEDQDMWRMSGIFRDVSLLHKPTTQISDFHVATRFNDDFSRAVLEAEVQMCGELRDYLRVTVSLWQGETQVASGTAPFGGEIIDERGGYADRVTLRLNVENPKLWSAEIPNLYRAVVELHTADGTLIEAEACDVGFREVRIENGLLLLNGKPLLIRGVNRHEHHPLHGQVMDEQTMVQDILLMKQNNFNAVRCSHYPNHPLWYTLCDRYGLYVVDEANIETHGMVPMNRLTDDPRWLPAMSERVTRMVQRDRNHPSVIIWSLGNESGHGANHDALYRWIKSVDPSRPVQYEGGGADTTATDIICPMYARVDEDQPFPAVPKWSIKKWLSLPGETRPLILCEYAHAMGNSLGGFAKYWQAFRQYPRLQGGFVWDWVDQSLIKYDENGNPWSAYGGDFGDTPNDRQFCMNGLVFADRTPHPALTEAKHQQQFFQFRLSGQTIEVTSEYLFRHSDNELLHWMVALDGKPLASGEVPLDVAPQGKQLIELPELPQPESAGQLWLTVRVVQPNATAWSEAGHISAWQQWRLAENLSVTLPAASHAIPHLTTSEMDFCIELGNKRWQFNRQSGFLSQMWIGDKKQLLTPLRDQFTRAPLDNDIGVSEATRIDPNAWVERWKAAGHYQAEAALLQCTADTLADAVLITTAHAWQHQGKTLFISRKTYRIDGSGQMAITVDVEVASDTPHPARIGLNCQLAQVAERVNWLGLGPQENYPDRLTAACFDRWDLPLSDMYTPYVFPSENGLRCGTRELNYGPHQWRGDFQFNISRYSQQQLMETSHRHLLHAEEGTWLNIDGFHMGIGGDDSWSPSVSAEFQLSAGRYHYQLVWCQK

[22] = biological target: T3, Kappa-type opioid receptor; type: functional; remark: listed apart in the source
[23] = enhancers of respiration in Yfh1-depleted yeast, dose response, Friedreich's ataxia, plus single-dose screen (AID 1465); type: functional;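 further: yeast depleted of Yfh1p frataxin homolog grown on glycerol needing respiration; WST-1 tetrazolium dye reduction as measure of cellular dehydrogenase metabolic activity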
[24] = biological target: T4, Hepatocyte nuclear factor 4-alpha (Homo sapiens, UniProt P41235); type: functional, cell-based;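 further: biochemical luminescence-based dose-response counterscreen measuring inhibition of HNF4 dimerization, run alongside a screen for blockers of ABHD5–perilipin-5 interaction; split luciferase complementation of HNF4 fusion proteins in cell lysate measuring dimerization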
T4 sequence (P41235 whole entry): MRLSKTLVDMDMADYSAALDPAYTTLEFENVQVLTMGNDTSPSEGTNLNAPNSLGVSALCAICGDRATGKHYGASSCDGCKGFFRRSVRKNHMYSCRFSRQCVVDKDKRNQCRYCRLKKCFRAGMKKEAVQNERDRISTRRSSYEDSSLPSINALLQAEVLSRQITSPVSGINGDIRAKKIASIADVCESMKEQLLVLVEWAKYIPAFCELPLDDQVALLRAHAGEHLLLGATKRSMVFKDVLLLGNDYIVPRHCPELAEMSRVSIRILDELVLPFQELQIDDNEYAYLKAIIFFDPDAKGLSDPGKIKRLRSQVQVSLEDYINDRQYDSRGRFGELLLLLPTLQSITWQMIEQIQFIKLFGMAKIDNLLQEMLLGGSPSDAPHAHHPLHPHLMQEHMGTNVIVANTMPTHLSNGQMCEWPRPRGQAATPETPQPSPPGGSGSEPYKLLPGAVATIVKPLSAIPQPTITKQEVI

Vero = assay: cells; type: functional; details: Chlorocebus sabaeus
[25] = biological target: Sphingosine 1-phosphate receptor 4 (Homo sapiens, UniProt O95977); assay: Fluorescence dose response cell-based high throughput screening assay for antagonists of the Sphingosine 1-Phosphate Receptor 4 (S1P4). [Related pubchem assays: 1524 (Confirmation in triplicates.), 1510 (Primary screen.)]; type: functional
Sphingosine 1-phosphate receptor 4, sequence (O95977 whole entry): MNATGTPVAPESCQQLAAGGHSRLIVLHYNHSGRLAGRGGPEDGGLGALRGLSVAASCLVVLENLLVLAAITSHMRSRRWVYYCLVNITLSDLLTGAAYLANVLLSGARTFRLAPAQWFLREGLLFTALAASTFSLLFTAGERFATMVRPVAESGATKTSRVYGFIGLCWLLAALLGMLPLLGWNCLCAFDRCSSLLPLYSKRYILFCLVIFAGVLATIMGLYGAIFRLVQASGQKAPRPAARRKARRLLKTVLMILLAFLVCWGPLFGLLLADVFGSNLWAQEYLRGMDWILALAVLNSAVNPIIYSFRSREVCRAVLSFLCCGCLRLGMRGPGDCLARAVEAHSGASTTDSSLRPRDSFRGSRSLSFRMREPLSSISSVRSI

[26] = biological target: Sphingosine 1-phosphate receptor 1 (Homo sapiens, UniProt P21453); type: functional;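 further: Tango beta-arrestin reporter U2OS cells stimulated with S1P near its EC80; inhibitor potency meaning antagonism of receptor activation by the natural agonist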
Sphingosine 1-phosphate receptor 1, sequence (P21453 whole entry): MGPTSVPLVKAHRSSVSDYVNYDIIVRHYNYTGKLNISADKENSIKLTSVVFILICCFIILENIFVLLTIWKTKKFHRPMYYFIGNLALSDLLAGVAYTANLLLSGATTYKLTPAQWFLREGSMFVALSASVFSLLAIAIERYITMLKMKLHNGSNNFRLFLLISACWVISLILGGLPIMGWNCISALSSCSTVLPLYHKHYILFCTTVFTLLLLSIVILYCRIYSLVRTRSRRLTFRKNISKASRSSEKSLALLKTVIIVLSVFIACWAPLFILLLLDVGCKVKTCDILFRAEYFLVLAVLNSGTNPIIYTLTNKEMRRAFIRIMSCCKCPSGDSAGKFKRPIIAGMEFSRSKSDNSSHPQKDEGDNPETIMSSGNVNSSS

[27] = inhibitors of PGC1a acetylation in cells, dose response, cell-based, cherry-picked samples (AID 720514); type: functional;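 further: potency may reflect raised or lowered acetylation signal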
Estrogen receptor = biological target: T5, Estrogen receptor (Homo sapiens, UniProt P03372); assay: potentiators of ERα–SRC-1 coactivator binding, dose response, biochemical, TR-FRET, ERα LBD (AID 737)
T5 sequence (P03372 whole entry): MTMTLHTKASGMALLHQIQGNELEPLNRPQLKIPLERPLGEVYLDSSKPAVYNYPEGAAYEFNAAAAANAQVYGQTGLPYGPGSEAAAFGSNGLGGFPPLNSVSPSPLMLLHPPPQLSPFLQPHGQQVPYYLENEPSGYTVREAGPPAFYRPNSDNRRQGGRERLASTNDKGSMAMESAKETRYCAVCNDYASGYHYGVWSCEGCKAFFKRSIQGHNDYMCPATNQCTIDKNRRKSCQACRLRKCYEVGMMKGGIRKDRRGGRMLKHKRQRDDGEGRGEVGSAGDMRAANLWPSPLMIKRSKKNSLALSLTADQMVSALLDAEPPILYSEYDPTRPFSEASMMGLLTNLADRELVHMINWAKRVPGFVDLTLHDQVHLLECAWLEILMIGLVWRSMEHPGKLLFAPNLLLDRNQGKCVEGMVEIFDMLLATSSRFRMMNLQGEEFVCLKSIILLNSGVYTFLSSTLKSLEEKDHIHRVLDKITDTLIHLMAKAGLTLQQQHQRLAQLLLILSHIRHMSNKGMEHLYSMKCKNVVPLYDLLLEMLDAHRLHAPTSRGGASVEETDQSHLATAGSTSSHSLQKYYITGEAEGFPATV

[28] = biological target: T6, Polyadenylate-binding protein 1 (Homo sapiens, UniProt P11940); assay: PABP1 MLLE–PAM2 interaction inhibitors, dose response, miRNA deadenylation inhibitor project, biochemical, fluorescence polarization, Cy5-PAM2 peptide, secondary (AID 602260); type: functional; details: read-out: IC50_Mean
T6 sequence (P11940 whole entry): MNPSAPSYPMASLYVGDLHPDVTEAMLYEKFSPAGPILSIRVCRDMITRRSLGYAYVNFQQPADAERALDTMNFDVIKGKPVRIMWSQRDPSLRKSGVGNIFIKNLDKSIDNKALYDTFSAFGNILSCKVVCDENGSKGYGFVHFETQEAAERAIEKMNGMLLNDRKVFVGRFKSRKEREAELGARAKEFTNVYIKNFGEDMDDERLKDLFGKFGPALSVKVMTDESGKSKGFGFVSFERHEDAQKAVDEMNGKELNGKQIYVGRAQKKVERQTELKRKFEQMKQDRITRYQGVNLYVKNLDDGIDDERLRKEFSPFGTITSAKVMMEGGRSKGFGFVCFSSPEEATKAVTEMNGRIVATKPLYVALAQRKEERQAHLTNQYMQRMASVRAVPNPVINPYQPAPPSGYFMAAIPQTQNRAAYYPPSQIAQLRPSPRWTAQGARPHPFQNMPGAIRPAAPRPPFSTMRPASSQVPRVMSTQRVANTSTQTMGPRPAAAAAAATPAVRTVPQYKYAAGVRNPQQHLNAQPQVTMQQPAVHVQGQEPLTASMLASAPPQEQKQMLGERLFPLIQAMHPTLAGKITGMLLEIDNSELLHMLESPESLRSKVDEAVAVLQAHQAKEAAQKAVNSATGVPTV

[29] = biological target: T6, Polyadenylate-binding protein 1; assay: PABP1 MLLE–PAM2 binding inhibitor potency, dose response, biochemical, fluorescence polarization, FITC-PAM2 peptide (AID 602259); type: functional; details: read-out: IC50_Mean
[30] = biological target: Voltage-gated inwardly rectifying potassium channel KCNH2 (Homo sapiens, UniProt Q12809); assay: hERG protection from proarrhythmic block, potency, dose response, cell-based, thallium flux (AID 2121); type: ADME

Sphingosine 1-phosphate receptor 2, sequence (O95136 whole entry): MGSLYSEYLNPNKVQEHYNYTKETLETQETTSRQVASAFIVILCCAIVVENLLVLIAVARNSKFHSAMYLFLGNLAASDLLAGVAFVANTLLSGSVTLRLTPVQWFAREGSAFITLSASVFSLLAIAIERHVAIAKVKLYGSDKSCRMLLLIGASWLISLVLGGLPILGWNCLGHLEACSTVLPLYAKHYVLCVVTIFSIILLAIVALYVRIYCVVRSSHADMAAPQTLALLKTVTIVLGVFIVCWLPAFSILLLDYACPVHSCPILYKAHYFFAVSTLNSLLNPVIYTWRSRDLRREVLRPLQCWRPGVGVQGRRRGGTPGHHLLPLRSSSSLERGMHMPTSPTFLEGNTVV

Cc1cc(C(=O)COC(=O)CN2C(=O)C3CCCCC3C2=O)c(C)n1Cc1ccccc1 (stereo unspecified)
EC50 [1]: > 30 µM (not active)

Cc1nc(C)c(-c2csc(Nc3ccccn3)n2)s1
EC50 [2]: 115 µM (active)

CCOC(=O)N1CCN(c2[nH]cnc3c4cc(F)ccc4nc2-3)CC1
IC50 (Galanin receptor type 2): 45.6 µM (not active)
AC50 (INS1): 5.61 µM (active)

CC1CCCCN1CCCNC(=O)c1ccc2nc(N3CCCCC3)sc2c1 (stereo unspecified)
EC50 [3]: 0.397 µM (active)
EC50 (H4): 15.1 µM (active)
EC50 [4]: 0.593 µM (active)
EC50 [5]: 0.177 µM (active)
EC50 [6]: < 0.1 µM (active)
EC50 [7]: 0.994 µM (active)

NS(=O)(=O)c1ccc(N=Nc2ccc(O)c3ncccc23)cc1
EC50 [8]: 5.67 µM (active)
EC50 [9]: 8.29 µM (active)
IC50 [10]: 10.7 µM (not active)
EC50 [11]: 4.07 µM (active)
AC50 (INS1): 3.45 µM (active)
EC50 [12]: 9.04 µM (active)
EC50 [13]: 10.4 µM (active)
EC50 [14]: 1.95 µM (active)
EC50 [15]: 32.2 µM (active)
IC50 (Nonstructural protein 1): 7.62 µM (active)
AC50 (Caspase-6): 1.58 µM (active)

CSc1nc2ccccc2nc1N(C)S(=O)(=O)c1ccc(C)cc1
EC50 (Mucolipin-3): > 29.9 µM (not active)
EC50 (Ion channel NompC): > 29.9 µM (not active)

Cc1ccc(C2C=C(c3ccc4c(c3)OCO4)Nc3ncnn32)cc1 (stereo unspecified)
IC50 [16]: 38.9 µM (active)

COc1ccc(NCN2C(=O)CCC2=O)cc1
IC50 [17]: > 100 µM (active)

CC1=NN(c2ccccc2)C(=O)/C1=C/C=C/C=C/N(C)C
IC50 [18]: 68.1 µM (active)
IC50 [19]: 21.6 µM (inactive)
IC50 [20]: 23.3 µM (inactive)
CC50 [21]: 100 µM (active)
EC50 (Beta-galactosidase): 14.8 µM (active)
IC50 [22]: > 32 µM
EC50 [23]: > 100 µM (active)

O=C(/C=C/c1ccccc1)CC(O)(c1ccccc1)C(F)(F)C(F)F (stereo unspecified)
IC50 [24]: 2.27 µM (active)
CC50 (Vero): 17.5 µM (active)
IC50 [25]: 1.7 µM (active)
IC50 [26]: 30.6 µM (not active)
AC50 [27]: 12.4 µM (active)

CCc1nnc2sc(-c3ccc(NC(=O)c4ccc5c(c4)OCCO5)cc3)nn12
EC50 (Estrogen receptor): 32.2 µM (not active)

Cc1ccc(S(=O)(=O)N=C(S)NC2CCCCC2)cc1
IC50 [28]: > 66 µM (inactive)
IC50 [29]: > 66 µM (inactive)
EC50 [30]: 9.12 µM (active)
